Measured values from publication PMC8834506, “Optimization of Thymidine Kinase-Based Safety Switch for Neural Cell Therapy” (Cells, 2022).
Entries after “also recorded” stand apart in the source; their conditions may differ. Like-named read-outs stand apart in the source and are kept apart here.

Columns and labels:
[1] = system: host cell DNA; conditions: cited from earlier work
[2] = system: hESC (HS420) expressing Ki67-SR39h; experiment: ATP-based cell survival assay, nucleoside-induced cell death; conditions: for EC50: SR39h under Ki67 promoter
[3] = type: in vivo, NOD/SCID mice; conditions: 40 mg/kg/day i.p.; weighed daily during treatment
Experimental: (§1) Given the encouraging in vitro results, we next investigated whether this newly developed safety switch system (SR39h and different nucleoside analogs) could prevent tumor formation in vivo. For this purpose, 20,000 undifferentiated Ki67-SR39h-expressing hESC were transplanted into the striatum of NOD/SCID mice. […] A group of control mice received only a NaCl solution. […] Human cytoplasmic marker (HCM) staining confirmed the human (i.e., hESC-derived) origin of these tumors. Tumors cells were predominantly Ki67 positive with a rosette organization as frequently found in tumors of the central nervous system.
Supplementary Figure S3: Mice weight
Mice were weighed daily during guanosine analogs treatment to identify differences in weight gain/loss between treated groups. No differences were observed between treatment groups.
Supplementary Figure S4: in vivo validation of suicide gene. Coronal section of NOD/SCID mice 47 days after injection of hESC expressing the SR39h thymidine kinase variant. Mice were treated for 2x5 days with the respective nucleoside analogs (see Methods). Upper lane: ACV; middle lane: PCV; lower lane: GCV. Sections were colored with cresyl violet and dark purple staining reflects a high density of nuclei. Scale bar 1000 µm. […]

[4] = system: non-transduced hESC colonies; experiment: Morphology and size of hESC colonies upon nucleoside treatment; type: cell-based, human
Description: We next investigated the impact of ACV, PCV, and GCV on non-transduced hESC and neuroprogenitors (proliferating ReNcells). […] To further understand the impact of nucleoside analogs on non-transduced cells, we performed γ-H2A.X immunostaining (Figure 6B). There was a graded response, virtually identical in hESC and in neuroprogenitors. […] In addition, we investigated the morphology and size of non-transduced hESC colonies upon nucleoside treatment. […] Taken together, our findings confirm considerable toxicity of GCV, even in the absence of viral TK. Note that this was not the case for PCV despite the fact that it is a potent inducer of cell death in thymidine kinase-expressing cells.
(§2) Cells were exposed to 100 µM of the respective nucleoside for 48 h. DNA damage was monitored using γ-H2A.X marker in yellow and nuclei were counterstained with Hoechst. The white box in the first column indicates the area of the zoom for the hESC colonies.

[5] = system: sister chromatid exchange; set-up: method as in PMID 10719044; conditions: at concentrations far below those impairing the proliferative activity; cited from earlier work
[6] = system: Ki67-SR39h-expressing hESC transplanted into the striatum; experiment: In vivo prevention of tumor formation after striatal transplantation; set-up: species or system NOD/SCID mice; conditions: 40 mg/kg/day i.p., 47 days post-transplantation
Experimental: as §1
Figure 7 in vivo validation of suicide gene and inducers. (A) Schematic diagram of the experimental setup to detect tumor elimination in vivo. NOD/SCID mice were transplanted with 20,000 SR39h-expressing hESC through stereotactic injection into the striatum. 48 h post transplantation, mice were intraperitoneally injected with the respective nucleoside (40 mg/kg) for five consecutive days a week during a two-week period. Control mice were treated with a NaCl solution. Mice were sacrificed 47 days post transplantation. (B) Cresyl violet staining of a brain section. […] (C) Immunostaining of brain coronal section (sections from ACV-, PCV-, and GCV-treated mice are shown in the upper, middle, and lower row, respectively). Staining with the proliferation marker Ki67 and with the human cytoplasmic marker (HCM) are shown in red and green, respectively. Nuclei were counterstained with DAPI (blue). White arrows show residual proliferative cells form the graft. A merge of the three staining is shown in the right column. Each experimental group consisted of five mice.
Single cell transplant: Undifferentiated HS420 (expressing TK variants) were detached by TrypLE and concentrated at 20,000 cells/μL in Stemflex. 20,000 cells (1 μL) were injected into the right striatum using a 26-G Hamilton syringe (Hamilton, BGB Analytik AG, Boeckten, Switzerland). Injection coordinates for striatum were: bregma = 0.6 mm, mediolateral = 2 mm, dorsoventral = 3 mm.
Thirty days after termination of treatment with the respective antiviral nucleoside analogs or control (NaCl), mice were sacrificed by intracardiac perfusion of paraformaldehyde 4% in PBS. Brains were removed from the skull and post-fixed in the same fixative overnight.
Paraffin embedded brains were sectioned (coronal sections 7 µm thick) and processed for hematoxylin and eosin or cresyl violet staining stain aiming morphological assessment of the graft. Sections were mounted in Eukitt (Kindler GmbH, Germany) and observed under microscope (see below)
The primary antibody diluted in PBS with 0.3% Triton was incubated at 4 °C overnight in agitation. […]

[7] = system: non-transduced hESC; type: cell-based; conditions: 96 h nucleoside exposure; up to 100 µM
Experimental: as §2
Plates were washed twice with DMEM-F12 (Gibco, ThermoFisher; Geneva, Switzerland), then coated with Matrigel (Corning, Lonay, Switzerland) 1/100 in DMEM-F12 and incubate 2 h at 37°. Cells were detached using Accutase and seeded at 2000 cells/well in serum-free culture medium containing 10 µM of ROCK inhibitor. At 24 h, the cell culture was continued without ROCK inhibitor. […] Drugs were prepared by serial dilution (two-fold) in 100% DMSO. At 48 h after seeding, cells were exposed to antiviral drugs for 96 h. For EC50 assays, the medium was changed daily for 4 days, then cell viability was assessed using an ATP-based assay. EC50 values for each construct were calculated using a four parameters equation (GraphPad, Prism8, San Diego, CA, USA). The same procedure was used for the cell death kinetic determinations except the treatment duration. Luminescence was measured using Spectra L384/L96 (0.2 sec exposure, Molecular devices, Biberach an der Riß, Germany).

[8] = Homo sapiens, 96 h, read-out: EC50 (cell survival), 96 h nucleoside exposure

SMILES	Fragmentation of host cell DNA [1]	Cell death induction in SR39h-expressing cells (in words) ([2]; 96 h nucleoside exposure)	EC50 [2, 8] [nM]	Differences in weight among groups [3]	Effect on morphology and size of colonies [4]	Induction of sister chromatid exchange [5]	Tumor formation ([6]; five consecutive days a week for two weeks, from 2 days after transplantation, five mice per group)	Mice with a small nuclei-rich region at the graft site ([6]; cresyl violet staining)	Toxicity in non-transduced hESC [7]	EC50 ([2]; read-out: EC50 (cell survival), 96 h nucleoside exposure) [nM]
Nc1nc2c(ncn2COCCO)c(=O)[nH]1 [ACV, acyclovir]	no fragmentation of host cell DNA	induced only very little cytotoxicity	2900	no significant differences in weight	did not observe an effect	–	–	–	–	–
Nc1nc2c(ncn2CCC(CO)CO)c(=O)[nH]1 [PCV, penciclovir]	induce fragmentation of host cell DNA	strong suicide inducers	2.4	no significant differences in weight	did not observe an effect	not	prevented tumor formation; also recorded: no major tumors; also recorded: impressive anti-tumor activities	small nucleus-rich region in one of the PCV-treated mice; also recorded: one out of five	did not observe toxicity	–
O=c1[nH]c(=O)n([C@H]2C[C@H](O)[C@@H](CO)O2)cc1/C=C/Br [BRVD, brivudine]	–	induced only very little cytotoxicity	~60000	–	–	–	–	–	–	–
CC(C)[C@H](N)C(=O)OCC(CO)OCn1cnc2c(=O)nc(N)[nH]c21 (stereo partly drawn) [Val-GCV, valganciclovir]	–	relatively weak, but clearly discernible activity	31	–	–	–	–	–	–	32
CC(=O)OCC(CCn1cnc2cnc(N)nc21)COC(C)=O [FAM, famciclovir]	–	did not show any toxic effects; also recorded: did not show any activity	> 100000	–	–	–	–	–	–	–
